Reference: ChEMBL document CHEMBL1143768, “Microwave prompted multigram synthesis, structural determination, and photo-antiproliferative activity of fluorinated 4-hydroxyquinolinones” (Bioorg Med Chem Lett, 2007)
Values after ≈ are worked out from the molar mass of the structure shown.

How the values were obtained:
HL-60 [1] = assay: Photocytotoxicity against human HL60 cell line irradiated with 1.25 J cm^-2 after 72 hrs by MTT assay; type: functional; conditions: HL-60, light or radiation study
[2] = tested on: Mycobacterium tuberculosis; assay: Growth inhibition of Mycobacterium tuberculosis at 6.25 ug/ml; type: functional
HL-60 [3] = assay: Photocytotoxicity against human HL60 cell line irradiated with 2.5 J cm^-2 after 72 hrs by MTT assay; type: functional; conditions: HL-60, light or radiation study
Trichophyton benhamiae = assay: Antifungal activity against Trichophyton mentagrophytes 445(TM) by broth microdilution test; type: functional, Arthroderma benhamiae
HL-60 [4] = assay: Apoptotic activity in HL60 cells irradiated with 2.5 J cm^-2 at 2.5 […] after 24 hrs; type: functional, Homo sapiens
[5] = Photocytotoxicity against human NTCC 2544 cell line irradiated with 1.25 J cm^-2 after 72 hrs by MTT assay; type: cell-based; conditions: NTCC 2544 cells
HL-60 [6] = assay: Cell cycle arrest in HL60 cell line irradiated with 2.5 J cm^-2 assessed as accumulation at G2 phase at 5.0 […] after 24hrs; type: functional, Homo sapiens
HL-60 [7] = assay: Apoptotic activity in HL60 cells irradiated with 2.5 J cm^-2 at 5.0 […] after 72 hrs; type: functional, Homo sapiens
HL-60 [8] = assay: Cell cycle arrest in HL60 cell line irradiated with 2.5 J cm^-2 assessed as accumulation at S phase at 2.5 […] after 24 hrs; type: functional, Homo sapiens
HL-60 [9] = assay: Cell cycle arrest in HL60 cell line irradiated with 2.5 J cm^-2 assessed as accumulation at S phase at 2.5 […] after 48 hrs; type: functional, Homo sapiens
HL-60 [10] = assay: Cell cycle arrest in HL60 cell line irradiated with 2.5 J cm^-2 assessed as accumulation at G1 phase at 2.5 […] after 72 hrs; type: functional, Homo sapiens
HL-60 [11] = assay: Cell cycle arrest in HL60 cell line irradiated with 2.5 J cm^-2 assessed as accumulation at S phase at 5.0 […] after 24hrs; type: functional, Homo sapiens
LoVo = assay: Photocytotoxicity against human LoVo cell line irradiated with 2.5 J cm^-2 after 72 hrs by MTT assay; type: functional; conditions: light or radiation study
HL-60 [12] = assay: Cell cycle arrest in HL60 cell line irradiated with 2.5 J cm^-2 assessed as accumulation at G2 phase at 5.0 […] after 72 hrs; type: functional, Homo sapiens
HL-60 [13] = assay: Cell cycle arrest in HL60 cell line irradiated with 2.5 J cm^-2 assessed as accumulation at S phase at 5.0 […] after 48 hrs; type: functional, Homo sapiens
HL-60 [14] = assay: Apoptotic activity in HL60 cells irradiated with 2.5 J cm^-2 at 2.5 […] after 48 hrs; type: functional, Homo sapiens
HL-60 [15] = assay: Cell cycle arrest in HL60 cell line irradiated with 2.5 J cm^-2 assessed as accumulation at G2 phase at 2.5 […] after 48 hrs; type: functional, Homo sapiens
HL-60 [16] = assay: Apoptotic activity in HL60 cells irradiated with 2.5 J cm^-2 at 2.5 […] after 72 hrs; type: functional, Homo sapiens
HL-60 [17] = assay: Cell cycle arrest in HL60 cell line irradiated with 2.5 J cm^-2 assessed as accumulation at G1 phase at 2.5 […] after 24 hrs; type: functional, Homo sapiens
HL-60 [18] = assay: Cell cycle arrest in HL60 cell line irradiated with 2.5 J cm^-2 assessed as accumulation at G1 phase at 5.0 […] after 48 hrs; type: functional, Homo sapiens
[19] = Photocytotoxicity against human NTCC 2544 cell line irradiated with 2.5 J cm^-2 after 72 hrs by MTT assay; type: cell-based; conditions: NTCC 2544 cells
HL-60 [20] = assay: Cell cycle arrest in HL60 cell line irradiated with 2.5 J cm^-2 assessed as accumulation at G2 phase at 2.5 […] after 24 hrs; type: functional, Homo sapiens
HL-60 [21] = assay: Cell cycle arrest in HL60 cell line irradiated with 2.5 J cm^-2 assessed as accumulation at S phase at 2.5 […] after 72 hrs; type: functional, Homo sapiens
HL-60 [22] = assay: Cell cycle arrest in HL60 cell line irradiated with 2.5 J cm^-2 assessed as accumulation at G2 phase at 5.0 […] after 48 hrs; type: functional, Homo sapiens
HL-60 [23] = assay: Cell cycle arrest in HL60 cell line […] cm^-2 assessed as accumulation at G2 phase at 2.5 […] after 72 hrs; type: functional, Homo sapiens
HL-60 [24] = assay: Cell cycle arrest in HL60 cell line irradiated with 2.5 J cm^-2 assessed as accumulation at G1 phase at 2.5 […] after 48 hrs; type: functional, Homo sapiens
HL-60 [25] = assay: Cell cycle arrest in HL60 cell line irradiated with 2.5 J cm^-2 assessed as accumulation at S phase at 5.0 […] after 72 hrs; type: functional, Homo sapiens
HL-60 [26] = assay: Apoptotic activity in HL60 cells irradiated with 2.5 J cm^-2 at 5.0 […] after 24 hrs; type: functional, Homo sapiens
HL-60 [27] = assay: Cell cycle arrest in HL60 cell line irradiated with 2.5 J cm^-2 assessed as accumulation at G1 phase at 5.0 […] after 72 hrs; type: functional, Homo sapiens
HL-60 [28] = assay: Cell cycle arrest in HL60 cell line irradiated with 2.5 J cm^-2 assessed as accumulation at G1 phase at 5.0 […] after 24hrs; type: functional, Homo sapiens
HL-60 [29] = assay: Apoptotic activity in HL60 cells irradiated with 2.5 J cm^-2 at 5.0 […] after 48 hrs; type: functional, Homo sapiens
[30] = tested on: Mycobacterium tuberculosis; assay: Antimicrobial activity against Mycobacterium tuberculosis; type: functional

In the case of `O=c1cc(O)c2ccc(F)cc2[nH]1`, the GI50 (HL-60 [1]) is reported as > 10 µM, the inhibition at 6.25 µg/mL [2] is reported as 52% and the GI50 (HL-60 [3]) is reported as 10 µM.
`NC(=O)c1cnccn1` [PYRAZINAMIDE] gave an inhibition at 6.25 µg/mL [2] of 100%.
For `OC(Cn1cncn1)(Cn1cncn1)c1ccc(F)cc1F` [FLUCONAZOLE], the MIC (Trichophyton benhamiae) was 1950 µM (≈ 597 µg/mL).
`O=c1cc(O)c2ccccc2[nH]1` gave an inhibition at 6.25 µg/mL [2] of 0%.
With `Cc1ccc2c(O)cc(=O)[nH]c2c1` the GI50 (HL-60 [1]) was > 10 µM, the inhibition at 6.25 µg/mL [2] was 54% and the GI50 (HL-60 [3]) was 10 µM.
In the case of `O=c1cc(O)c2cccc(F)c2[nH]1`, the GI50 (HL-60 [1]) is reported as > 10 µM, the inhibition at 6.25 µg/mL [2] is reported as 50% and the GI50 (HL-60 [3]) is reported as 10 µM.
With `O=c1cc(O)c2cc(F)ccc2[nH]1` the Activity (HL-60 [4]) was 13.2%, the GI50 at 72 h [5] was > 20 µM and the Activity (HL-60 [6]) was 11.1%. The GI50 (HL-60 [1]) was > 10 µM, the Activity (HL-60 [7]) was 46% and the inhibition at 6.25 µg/mL [2] was 35%. For the same compound, the Activity (HL-60 [8]) was 58.4%, the Activity (HL-60 [9]) was 45% and the Activity (HL-60 [10]) was 44.2%. It also gave an Activity (HL-60 [11]) of 54.3%, a GI50 (LoVo) of 12.1 µM and an Activity (HL-60 [12]) of 6.9%. The Activity (HL-60 [13]) was 38.6%, the Activity (HL-60 [14]) was 27% and the Activity (HL-60 [15]) was 10.3%. It also gave an Activity (HL-60 [16]) of 40.5%, an Activity (HL-60 [17]) of 30.8% and an Activity (HL-60 [18]) of 49.6%. The GI50 at 72 h [19] was > 20 µM, the Activity (HL-60 [20]) was 10.8% and the Activity (HL-60 [21]) was 43.8%. For the same compound, the Activity (HL-60 [22]) was 11.7%, the Activity (HL-60 [23]) was 12% and the Activity (HL-60 [24]) was 44.7%. For the same compound, the Activity (HL-60 [25]) was 37.1%, the Activity (HL-60 [26]) was 21% and the Activity (HL-60 [27]) was 56%. For the same compound, the GI50 (HL-60 [3]) was 7.8 µM, the Activity (HL-60 [28]) was 34.6% and the Activity (HL-60 [29]) was 26%.
In the case of `O=c1cc(O)c2cccc(C(F)(F)F)c2[nH]1`, the GI50 at 72 h [5] is reported as > 20 µM, the GI50 (HL-60 [1]) is reported as > 10 µM and the inhibition at 6.25 µg/mL [2] is reported as 69%. It also gave a GI50 (LoVo) of 10.1 µM, a GI50 at 72 h [19] of 7.8 µM and a GI50 (HL-60 [3]) of 7.3 µM.
With `O=c1cc(O)c2ccc(Cl)cc2[nH]1` the inhibition at 6.25 µg/mL [2] was 2%.
Work on `O=c1cc(O)c2ccc(C(F)(F)F)cc2[nH]1` yielded a GI50 at 72 h [5] of 7 µM, a GI50 (HL-60 [1]) of 6.2 µM and an inhibition at 6.25 µg/mL [2] of 72%. It also gave a GI50 (LoVo) of 1.8 µM, a GI50 at 72 h [19] of 2.5 µM and an Inhibition [30] of 72%.
